Source: patent US20120245137A1 (Zalicus Pharmaceuticals Ltd., priority 2009, published 2012)

Assays:
Assay type in all cases: cell-based
[1] = target: human α1G T-type channels (Homo sapiens, UniProt O43497); assay: T-type calcium channel block, whole cell patch clamp, α1G; details: HEK cells stably expressing human α1G; mainly non-inactivated protocol; values above 10,000 nM represented as 10000
How it was run: (§1)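 Whole-cell T-type currents, stably transfected HEK 293 (human α1G/α1H), passage 4-20. Cmpd in external soln, 0.1-0.01% DMSO, local gravity perfusion after ~10 min rest. Two voltage protocols: non-inactivating (resting block), inactivation (voltage-dependent block).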

[2] = target: human α1H T-type channels (Homo sapiens, UniProt O95180); assay: T-type calcium channel block, whole cell patch clamp, α1H; details: HEK cells stably expressing human α1H; mainly non-inactivated protocol; values above 10,000 nM represented as 10000
How it was run: as §1

[3] = target: N-type calcium channel subunits (α1B, α2δ, and β3a) (Homo sapiens, UniProt Q00975); assay: Block of Cav2.2 channel, whole cell voltage clamp, manual and PatchXpress; details: Table 5; table follows Assay Example 3 (whole cell voltage clamp / PatchXpress); assay not given
Chain of N-type calcium channel subunits (α1B, α2δ, and β3a) (Q00975 whole entry): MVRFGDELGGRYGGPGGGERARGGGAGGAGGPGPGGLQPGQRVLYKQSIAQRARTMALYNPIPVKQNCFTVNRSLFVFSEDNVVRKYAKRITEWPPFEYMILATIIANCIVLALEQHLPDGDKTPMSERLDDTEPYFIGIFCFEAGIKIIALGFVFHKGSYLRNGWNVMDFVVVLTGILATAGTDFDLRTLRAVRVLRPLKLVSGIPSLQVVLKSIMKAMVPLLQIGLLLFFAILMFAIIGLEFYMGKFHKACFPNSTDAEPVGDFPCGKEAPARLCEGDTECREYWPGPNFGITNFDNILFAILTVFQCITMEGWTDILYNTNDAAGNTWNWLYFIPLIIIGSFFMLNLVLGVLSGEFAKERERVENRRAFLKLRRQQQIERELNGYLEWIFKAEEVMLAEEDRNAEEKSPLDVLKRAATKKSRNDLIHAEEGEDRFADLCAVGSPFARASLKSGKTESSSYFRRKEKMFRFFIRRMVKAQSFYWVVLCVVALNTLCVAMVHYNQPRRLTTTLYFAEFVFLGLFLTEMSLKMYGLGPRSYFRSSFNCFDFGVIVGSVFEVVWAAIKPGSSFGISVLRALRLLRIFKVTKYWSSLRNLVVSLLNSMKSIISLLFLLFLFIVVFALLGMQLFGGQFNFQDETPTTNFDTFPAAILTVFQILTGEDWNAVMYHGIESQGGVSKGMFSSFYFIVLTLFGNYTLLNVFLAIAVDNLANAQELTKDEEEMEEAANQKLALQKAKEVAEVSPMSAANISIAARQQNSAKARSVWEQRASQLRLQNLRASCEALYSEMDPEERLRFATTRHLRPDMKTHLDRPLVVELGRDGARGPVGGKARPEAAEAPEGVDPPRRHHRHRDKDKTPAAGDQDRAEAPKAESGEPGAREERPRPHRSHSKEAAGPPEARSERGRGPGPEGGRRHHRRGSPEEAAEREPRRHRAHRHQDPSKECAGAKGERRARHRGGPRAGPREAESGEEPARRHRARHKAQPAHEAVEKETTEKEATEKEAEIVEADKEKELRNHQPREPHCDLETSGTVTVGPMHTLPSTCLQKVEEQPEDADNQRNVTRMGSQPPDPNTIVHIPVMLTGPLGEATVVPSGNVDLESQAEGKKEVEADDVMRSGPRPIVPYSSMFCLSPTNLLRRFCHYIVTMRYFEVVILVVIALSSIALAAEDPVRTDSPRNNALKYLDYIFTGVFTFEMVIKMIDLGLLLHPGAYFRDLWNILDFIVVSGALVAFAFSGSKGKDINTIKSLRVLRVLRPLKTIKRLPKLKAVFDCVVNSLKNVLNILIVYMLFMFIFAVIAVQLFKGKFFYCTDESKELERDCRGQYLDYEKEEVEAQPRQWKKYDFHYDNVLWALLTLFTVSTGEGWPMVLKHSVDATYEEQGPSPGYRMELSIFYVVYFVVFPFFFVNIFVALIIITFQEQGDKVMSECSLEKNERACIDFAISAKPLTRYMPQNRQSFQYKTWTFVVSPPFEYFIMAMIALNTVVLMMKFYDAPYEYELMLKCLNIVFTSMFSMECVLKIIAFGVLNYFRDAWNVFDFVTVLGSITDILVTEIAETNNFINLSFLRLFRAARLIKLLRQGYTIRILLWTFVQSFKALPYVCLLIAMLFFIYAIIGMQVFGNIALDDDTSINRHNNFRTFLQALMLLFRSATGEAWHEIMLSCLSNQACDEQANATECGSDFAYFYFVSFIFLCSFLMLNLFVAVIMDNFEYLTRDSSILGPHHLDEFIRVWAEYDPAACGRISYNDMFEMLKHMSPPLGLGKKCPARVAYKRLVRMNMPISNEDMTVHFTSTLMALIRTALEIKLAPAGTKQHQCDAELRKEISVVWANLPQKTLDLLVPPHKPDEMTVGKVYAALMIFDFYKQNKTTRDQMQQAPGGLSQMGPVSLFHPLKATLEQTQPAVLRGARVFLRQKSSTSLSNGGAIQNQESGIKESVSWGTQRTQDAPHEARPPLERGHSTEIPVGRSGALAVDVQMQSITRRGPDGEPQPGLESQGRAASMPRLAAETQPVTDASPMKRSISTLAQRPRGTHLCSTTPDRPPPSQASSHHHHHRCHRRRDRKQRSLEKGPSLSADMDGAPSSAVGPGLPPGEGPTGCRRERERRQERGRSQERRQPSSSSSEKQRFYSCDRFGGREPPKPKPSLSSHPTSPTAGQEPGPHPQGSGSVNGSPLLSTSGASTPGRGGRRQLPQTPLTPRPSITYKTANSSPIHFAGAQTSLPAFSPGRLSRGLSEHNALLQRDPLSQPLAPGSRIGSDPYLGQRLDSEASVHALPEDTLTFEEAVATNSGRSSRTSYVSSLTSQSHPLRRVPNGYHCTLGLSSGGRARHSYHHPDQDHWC
Chain of N-type calcium channel subunits (α1B, α2δ, and β3a) (P54289 25-1103 partner): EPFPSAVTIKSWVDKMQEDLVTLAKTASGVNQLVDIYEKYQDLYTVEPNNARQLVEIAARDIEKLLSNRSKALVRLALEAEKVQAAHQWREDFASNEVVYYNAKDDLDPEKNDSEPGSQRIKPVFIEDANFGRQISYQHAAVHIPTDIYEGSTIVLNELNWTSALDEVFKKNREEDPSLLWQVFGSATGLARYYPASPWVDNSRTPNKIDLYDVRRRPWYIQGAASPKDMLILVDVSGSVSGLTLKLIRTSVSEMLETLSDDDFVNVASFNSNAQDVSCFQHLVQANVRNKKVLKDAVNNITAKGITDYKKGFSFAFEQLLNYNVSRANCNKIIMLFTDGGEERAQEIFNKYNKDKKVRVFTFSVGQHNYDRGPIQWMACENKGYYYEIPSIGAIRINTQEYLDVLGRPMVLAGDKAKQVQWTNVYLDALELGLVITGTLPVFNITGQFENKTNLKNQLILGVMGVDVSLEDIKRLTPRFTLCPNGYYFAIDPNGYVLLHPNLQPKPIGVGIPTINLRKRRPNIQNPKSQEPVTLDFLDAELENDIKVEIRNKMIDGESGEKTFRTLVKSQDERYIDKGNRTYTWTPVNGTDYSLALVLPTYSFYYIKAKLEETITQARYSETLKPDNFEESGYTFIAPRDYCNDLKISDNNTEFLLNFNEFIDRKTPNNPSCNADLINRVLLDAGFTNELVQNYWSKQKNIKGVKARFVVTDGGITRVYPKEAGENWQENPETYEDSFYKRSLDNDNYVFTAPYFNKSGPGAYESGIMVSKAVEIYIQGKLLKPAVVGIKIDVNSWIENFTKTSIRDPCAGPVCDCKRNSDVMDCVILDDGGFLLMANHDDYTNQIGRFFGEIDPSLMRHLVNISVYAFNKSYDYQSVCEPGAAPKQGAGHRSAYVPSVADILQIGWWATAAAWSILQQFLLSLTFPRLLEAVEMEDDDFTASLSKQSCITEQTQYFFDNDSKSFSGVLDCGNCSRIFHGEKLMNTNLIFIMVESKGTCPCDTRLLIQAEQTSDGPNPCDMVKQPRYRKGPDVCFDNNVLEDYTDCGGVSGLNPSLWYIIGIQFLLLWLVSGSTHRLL
Chain of N-type calcium channel subunits (α1B, α2δ, and β3a) (P54284 whole entry partner): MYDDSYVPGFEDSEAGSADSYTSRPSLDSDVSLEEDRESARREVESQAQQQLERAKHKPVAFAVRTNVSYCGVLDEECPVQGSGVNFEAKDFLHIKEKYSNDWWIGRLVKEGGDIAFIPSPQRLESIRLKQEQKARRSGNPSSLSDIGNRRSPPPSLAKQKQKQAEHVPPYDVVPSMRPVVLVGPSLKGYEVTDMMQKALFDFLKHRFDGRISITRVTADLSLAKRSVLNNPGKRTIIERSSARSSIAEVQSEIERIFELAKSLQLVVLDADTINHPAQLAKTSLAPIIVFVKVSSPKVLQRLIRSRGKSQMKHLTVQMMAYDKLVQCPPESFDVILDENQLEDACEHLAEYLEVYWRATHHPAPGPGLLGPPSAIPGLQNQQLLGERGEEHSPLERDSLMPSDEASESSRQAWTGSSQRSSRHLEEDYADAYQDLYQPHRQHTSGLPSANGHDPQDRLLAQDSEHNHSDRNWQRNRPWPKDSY
How it was run: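 Percent block taken as current amplitude ratio with versus without compound, applied in rising doses; IC50 fitted where one cell received multiple doses. Protocol: 50 ms pulses to +20 mV at 0.067 Hz from […] or −90 mV holding; P/n leak subtraction, no junction-potential correction; manual and PatchXpress recordings.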

Compound	IC50 [1] [nM]	IC50 [2] [nM]	IC50 [3] [nM]
O=C(N[C@H]1CC[C@@](F)(S(=O)(=O)c2cccc(C(F)(F)F)c2)CC1)c1cn2cc(C(F)(F)F)ccc2n1 [Compound 264, N-((1S,4S)-4-fluoro-4-(3-(trifluoromethyl)phenylsulfonyl)cyclohexyl)-6-(trifluoromethyl)imidazo[1,2-a]pyridine-2-carboxamide]	4480	> 10000	470
COc1cc(Cl)ccc1C(=O)N[C@H]1CC[C@@](F)(S(=O)(=O)c2cccc(C(F)(F)F)c2)CC1 [Compound 265, 4-chloro-N-((1S,4S)-4-fluoro-4-(3-(trifluoromethyl)phenylsulfonyl)cyclohexyl)-2-methoxybenzamide]	> 10000	> 10000	260
O=C(N[C@H]1CC[C@@](F)(S(=O)(=O)c2cccc(C(F)(F)F)c2)CC1)c1cc2cnccc2nc1C(F)(F)F [Compound 266, N-((1S,4S)-4-fluoro-4-(3-(trifluoromethyl)phenylsulfonyl)cyclohexyl)-2-(trifluoromethyl)-1,6-naphthyridine-3-carbosamide]	3670	5560	2440
O=C(N[C@H]1CC[C@@](F)(S(=O)(=O)c2cccc(C(F)(F)F)c2)CC1)c1ccnc(C(F)(F)F)n1 [Compound 268, N-((1S,4S)-4-fluoro-4-(3-(trifluoromethyl)phenylsulfonyl)cyclohexyl)-2-(trifluoromethyl)pyrimidine-4-carboxamide]	> 10000	1910	30
O=C(N[C@H]1CC[C@@](F)(S(=O)(=O)c2cccc(C(F)(F)F)c2)CC1)c1ccc(Cl)c(Cl)c1 [Compound 269, 3,4-dichloro-N-((1S,4S)-4-fluoro-4-(3-(trifluoromethyl)phenylsulfonyl)cyclohexyl)benzamide]	> 10000	> 10000	190
CS(=O)(=O)c1cc(C(=O)N[C@H]2CC[C@@](F)(S(=O)(=O)c3cccc(C(F)(F)F)c3)CC2)cc(C(F)(F)F)n1 [Compound 273, N-((1R,4R)-4-fluoro-4-(3-(trifluoromethyl)phenylsulfonyl)cyclohexyl)-2-(methylsulfonyl)-6-(trifluoromethyl)isonicotinamide]	> 10000	> 10000	430
O=C(N[C@H]1CC[C@@](F)(S(=O)(=O)c2cccc(C(F)(F)F)c2)CC1)C1(C(F)(F)F)CC1 [Compound 275, N-((1S,4S)-4-fluoro-4-(3-(trifluoromethyl)phenylsulfonyl)cyclohexyl)-1-(trifluoromethyl) cyclopropaneCarboxamide]	> 10000	> 10000	700
COc1ccc(C2(C(=O)N[C@H]3CC[C@@](F)(S(=O)(=O)c4cccc(C(F)(F)F)c4)CC3)CC2)cc1 [Compound 276, N-((1S,4S)-4-fluoro-4-(3-(trifluoromethyl)phenylsulfonyl)cyclohexyl)-1-(4-methoxyphenyl) cyclopropanecarboxamide]	> 10000	2300	380
O=C(N[C@H]1CC[C@@](F)(S(=O)(=O)c2cccc(C(F)(F)F)c2)CC1)C1Cc2ccccc2N1 (stereo partly drawn) [Compound 279, N-((1S,4S)-4-fluoro-4-(3-(trifluoromethyl)phenylsulfonyl)cyclohexyl) indoline-2-carboxamide]	> 10000	2090	450
CC(C)S(=O)(=O)c1cc(C(F)(F)F)cnc1C(=O)N[C@H]1CC[C@@](F)(S(=O)(=O)c2cccc(C(F)(F)F)c2)CC1 [Compound 281, N-((1S,4S)-4-fluoro-4-(3-(trifluoromethyl)phenylsulfonyl)cyclohexyl)-3-(isopropylsulfonyl)-5-(trifluoromethyl)picolinamide]	8530	1460	30
O=C(N[C@H]1CC[C@@](F)(S(=O)(=O)c2cccc(C(F)(F)F)c2)CC1)[C@@H]1C[C@@H](c2ccccc2)CN1 [Compound 285, (2S,4S)-N-((1S,4R)-4-fluoro-4-(3-(trifluoromethyl)phenylsulfonyl)cyclohexyl)-4-phenylpyrrolidine-2-carboxamide]	> 10000	1280	360
O=C(N[C@H]1CC[C@@](F)(S(=O)(=O)c2cccc(C(F)(F)F)c2)CC1)[C@@H]1C[C@H](c2ccccc2)CN1 [Compound 286, (2S,4R)-N-((1S,4R)-4-fluoro-4-(3-(trifluoromethyl)phenylsulfonyl)cyclohexyl)-4-phenylpyrrolidine-2-carboxamide]	3190	1540	390
O=C(N[C@H]1CC[C@@](F)(S(=O)(=O)c2cccc(C(F)(F)F)c2)CC1)[C@@H]1C[C@@H](Cc2ccc(F)cc2)CN1 [Compound 287, (2S,4R)-N-((1S,4R)-4-fluoro-4-(3-(trifluoromethyl)phenylsulfonyl)cyclohexyl)-4-(4-fluorobenzyl)pyrrolidine-2-carboxamide]	6500	1130	310
O=C(N[C@H]1CC[C@@](F)(S(=O)(=O)c2cccc(C(F)(F)F)c2)CC1)[C@H]1CC[C@@H](c2ccccc2)N1 [Compound 288, (2R,5S)-N-((1S,4S)-4-fluoro-4-(3-(trifluoromethyl)phenylsulfonyl)cyclohexyl)-5-phenylpyrrolidine-2-carboxamide]	> 10000	3260	640
CC(C)(C(=O)N[C@H]1CC[C@@](F)(S(=O)(=O)c2cccc(C(F)(F)F)c2)CC1)S(=O)(=O)c1cccc(C(F)(F)F)c1 [Compound 291, N-((1S,4S)-4-fluoro-4-(3-(trifluoromethyl)phenylsulfonyl)cyclohexyl)-2-methyl-2-(3-(trifluoromethyl)phenylsulfonyl)propanamide]	> 10000	6060	50
Cc1nn(C)c(C)c1S(=O)(=O)N[C@H]1CC[C@@](F)(S(=O)(=O)c2cccc(C(F)(F)F)c2)CC1 [Compound 293, N-((1S,4S)-4-fluoro-4-(3-(trifluoromethyl)phenylsulfonyl)cyclohexyl)-1,3,5-trimethyl-1H-pyrazole-4-sulfonamide]	4770	1850	1630

The next molecules have a lower IC50 [1] than those just listed; values first:

IC50 [1] [nM]	IC50 [2] [nM]	IC50 [3] [nM]	Compound
2890	1470	250	CS(=O)(=O)c1cc(Cl)ccc1C(=O)N[C@H]1CC[C@@](F)(S(=O)(=O)c2cccc(C(F)(F)F)c2)CC1 [Compound 262, 4-chloro-N-((1S,4S)-4-fluoro-4-(3-(trifluoromethyl)phenylsulfonyl)cyclohexyl)-2-(methylsulfonyl)benzamide]
2230	1360	2510	CS(=O)(=O)c1ccc(C(=O)N[C@H]2CC[C@@](F)(S(=O)(=O)c3cccc(C(F)(F)F)c3)CC2)c(Cl)c1 [Compound 263, 2-chloro-N-((1S,4S)-4-fluoro-4-(3-(trifluoromethyl)phenylsulfonyl)cyclohexyl)-4-(methylsulfonyl)benzamide]
2630	490	790	O=C(N[C@H]1CC[C@@](F)(S(=O)(=O)c2cccc(C(F)(F)F)c2)CC1)c1cnccc1C(F)(F)F [Compound 267]
2540	3580	210	O=C(N[C@H]1CC[C@@](F)(S(=O)(=O)c2cccc(C(F)(F)F)c2)CC1)c1ccc(Cl)cc1Cl [Compound 270, 2,4-dichloro-N-((1S,4S)-4-fluoro-4-(3-(trifluoromethyl)phenylsulfonyl)cyclohexyl) benzamide]
2630	1650	8160	CS(=O)(=O)c1ccc(C(=O)N[C@H]2CC[C@@](F)(S(=O)(=O)c3cccc(C(F)(F)F)c3)CC2)cc1 [Compound 271, N-((1S,4S)-4-fluoro-4-(3-(trifluoromethyl)phenylsulfonyl)cyclohexyl)-4-(methylsulfonyl)benzamide]
2540	1050	530	O=C(CCC(F)(F)F)N[C@H]1CC[C@@](F)(S(=O)(=O)c2cccc(C(F)(F)F)c2)CC1 [Compound 274, 4,4,4-trifluoro-N-((1S,4S)-4-fluoro-4-(3-(trifluoromethyl)phenylsulfonyl)cyclohexyl)butanamide]
2460	540	470	O=C(N[C@H]1CC[C@@](F)(S(=O)(=O)c2cccc(C(F)(F)F)c2)CC1)C1CCCC1 [Compound 277, N-((1S,4S)-4-fluoro-4-(3-(trifluoromethyl)phenylsulfonyl)cyclohexyl) cyclopentanecarboxamide]
2480	2230	280	CC(C)(C)CC(=O)N[C@H]1CC[C@@](F)(S(=O)(=O)c2cccc(C(F)(F)F)c2)CC1 [Compound 278, N-((1S,4S)-4-fluoro-4-(3-(trifluoromethyl)phenylsulfonyl)cyclohexyl)-3,3-dimethylbutanamide]
1400	1040	540	O=C(N[C@H]1CC[C@@](F)(S(=O)(=O)c2cccc(C(F)(F)F)c2)CC1)[C@@H]1CC[C@H](c2ccccc2)N1 [Compound 289]
1180	570	420	O=C1c2ccc(C(F)(F)F)nc2CN1[C@H]1CC[C@@](F)(S(=O)(=O)c2cccc(C(F)(F)F)c2)CC1 [Compound 290, 6-((1S,4S)-4-f1uoro-4-(3-(trifluoromethyl)phenylsulfonyl)cyclohexyl)-2-(trifluoromethyl)-6,dihydro-5Hpyrrolo[3,4-b]pyridin-5-one]
